One series concerns WM115 cells. As to the kind of experiment: WM115 melanoma cell viability. Particulars: WM115 cells. In kind it is cell-based, human. How it is done: (§1) Cell lines. Mouse melanoma (SW1) and human melanoma (LU1205) cells were maintained in DMEM supplemented with 10% FBS, L-glutamine and antibiotics. The human melanoma cell lines MEWO and WM115 were maintained in RPMI supplemented with 10% FBS and antibiotics. Primary mouse melanocytes were cultured in F-12 media supplemented with 10% FBS, antibiotics, IBMX (isobuthyl-methylxantine), bovine pituitary extract, and TPA.
(§2) Mitochondrial activity and apoptosis. Cells were exposed to the chemicals for 12-48 hours as indicated in Results. To measure changes in mitochondrial activity reflective of general cell viability, the ATPLITE ATP detection assay was used according to the manufacturer's recommendations (Perkin Elmer). Apoptosis analysis was performed by flow cytometry of PI-stained cells. The percentage of cells to the left of the diploid G0/1 peak, characteristic of hypodiploid cells that have partially lost DNA, was calculated as percentage of apoptotic cells (Bhoumik et al., PNAS 101:4222-7, 2004). Analysis of changes in Caspase 8 expression pattern was performed using immunoblot analysis.
The effects of CSL and AIGA on the human melanoma cell lines WM115 and MEWO were assessed. AIGA reduced the viability of the human melanoma cultures when added at a concentration of 0.5-2 μM (FIG. 5a and FIG. 5c) whereas CSL reduced their viability at a concentration of 0.1 μM-2 μM in WM115 cells (FIG. 5b) and 0.05 μM-2 μM in MeWO cells (FIG. 5d).

The subject of a further series is MeWO cells. Description: MeWO melanoma cell viability. In kind it is cell-based, human. As to the method: as §1, §2
The effects of CSL and AIGA on the human melanoma cell lines WM115 and MEWO were assessed. […]

Series [1] in a line: Tolerability of administration to mice. The following applies: daily administration, doses up to 1 mg/kg. In kind it is in vivo, mouse. How it is done: (§3) To assess the ability of CSL and CSL derivatives to affect the tumorigenicity and metastasis of melanoma, the mouse SW1 cell lines were used in syngeneic models. Injection of SW1 melanoma cells subcutaneously into C3H mice was followed by daily injections of CSL intraperitoneally (IP). […] Briefly, SW1 cells that stably express GFP were injected s.c into C3H mice. When the tumor reached the size of 50 mm^3, the vehicle, CSL (1 mg/kg), CA16 (0.5 mg/kg) or CA19 (0.5 mg/kg) were administered i.p, every second day for a period of 24 days. Tumor size was measured at the indicated times. Data presented in FIG. 6b represents two experiments.

Another series has as its system SW1 tumors. Description: SW1 tumor growth in syngeneic C3H mice. In kind it is in vivo, mouse. Particulars: 1 mg/kg i.p. every second day for 24 days. How it is done:
(§4) Tumor growth and metastasis in vivo. GFP-expressing SW1 cells were trypsinized, resuspended in PBS, and injected subcutaneously (1×10^6) into the lower flank of 6 to 7-week-old mice. When tumors reached a size of about 50 mm^3, the indicated compounds (100 μL of the vehicle—10% DMSO, 70% Cremophor/ethanol (3:1), and 20% PBS and 1.0 mg/kg of celastrol or 0.5 mg/kg of the derivatives CA16, CA19) were injected i.p. every alternate day. Body weight and tumor growth were monitored every 2 days. GFP-expressing SW1 tumors were monitored in vivo on shaved mice with a light box illuminated by blue light fiber optics (Lightools Research; Encinitas, Calif.), and imaging was carried out with a digital camera (Nikon D100). Tumors were measured for up to 3 weeks. For metastases studies, LU1205 cells (1×10^6) were injected i.v. into the lateral tail vein of nude mice. At the end of the experiment, the lungs and tumors were excised and weighed. To detect metastatic lesions, lungs were fixed in formalin, embedded in paraffin and subjected to hematoxylin and eosin staining.
as §3

Series [2] has as its system Human melanoma LU1205 cells. As to the kind of experiment: LU1205 lung metastasis in nude mice. In kind it is in vivo, mouse. The following applies: compound every second day, analysis 60 days after injection. As to the method:
as §4
The effect of CSL and CSL derivatives, CA16 and CA19, on the metastatic capacity of melanoma cells was then determined. Human melanoma LU1205 cells were injected into the tail vein of nude mice, followed by administration of the compounds every second day. This approach allows monitoring of changes in the number of lesions formed on the lungs, a primary organ for tumor cell growth under this experimental approach. Analysis performed 60 days following injection determined changes in the number and size of metastatic lesions in each of the experimental groups.

Another series concerns SW1 mouse melanoma. Description: SW1 metastatic lesions in syngeneic C3H mice. The following applies: SW1 cells s.c. in C3H mice. In kind it is in vivo. How it is done:
as §4
To further assess the impact of these compounds on the development of metastatic lesions, the SW1 mouse melanoma model using the syngeneic C3H strain was employed. Subcutaneous injection of SW1 cells results in tumor formation at the site of injection followed by metastasis to different sites within 6-8 weeks.

Here are results for 2 compounds from patent publication US7888355B2, “Compositions and methods for inhibiting growth and metastasis of melanoma” (Burnham Institute for Medical Research, priority 2007, dated 2011).

Regarding `CC(=O)Oc1c2c(c(CC=C(C)C)c3c1C(=O)C1=C[C@@H]4CC5C(C)(C)OC(C/C=C(\C)C(=O)O)(C4=O)[C@@]15O3)OC(C)(CCC=C(C)C)C=C2` (stereo partly drawn) [AIGA, Acetyl isogambogic acid], the “concentration at which viability was reduced” value in the series with WM115 cells and in the series on MeWO cells was 0.5 to 2 µM throughout.
Consider `CC1=C(O)C(=O)C=C2C1=CC=C1[C@@]2(C)CC[C@@]2(C)[C@@H]3C[C@](C)(C(=O)O)CC[C@]3(C)CC[C@]12C` [Celastrol], for which the “toxicity or discomfort in mice” value in series [1] was “did not result in toxicity or any noticeable discomfort”. For the same compound, in the series with SW1 tumors, the “reduction of tumor growth” value was determined as 5 fold. Besides, the “growth of large, medium and small sized lesions in the lungs” value in series [2] is “efficient in inhibiting growth of large medium and small sized lesions in the lungs”. Further, the metastatic lesions result with SW1 mouse melanoma is “potently exhibit the ability to inhibit large as well as small metastatic lesions, with the exception of the 1-2 mm range”.
